# Tests used:
# Format in all cases: physicochemical
# [1] = Stability of PODS solutions in DMSO; conditions: solution in DMSO, room temperature
# Procedure: All intermediates were obtained in >95% purity using minimal equipment and simple procedures without chromatographic purifications. The methyl thioether 1 was obtained quantitatively via the methylation of the thiol with methyl iodide; unfortunately, we were not able to replace the use of the toxic methyl iodide with any safer reagent. The coupling between 1 and the carboxylic acid-bearing PEG chain was performed using EDCI as a coupling agent. Overnight reaction at room temperature led to the complete consumption of the starting material but also the formation of degradation products. It was possible to separate 2 from the two unidentified impurities by precipitating it with a mixture of ethyl acetate and cyclohexane. The oxidation of 2 was performed using the peracid mCPBA. This lead to the formation of the methylsulfone 3 with a yield of 90%. Finally, PODS was obtained from 3 after the quantitative deprotection of the terminal amine using a solution of trifluoroacetic acid in dichloromethane. Solutions of PODS in DMSO were stable at room temperature and have been kept at room temperature for 5 months without any noticeable signs of degradation.
# [2] = Reaction of PODS with glutathione; conditions: pH 7.5
# Procedure: (§1) The reaction between PODS and Boc-L-cysteine was quantitative in less than 2 minutes at pH 7.5. See FIG. 3A, FIG. 3B and FIG. 3C. In a move toward a model closer to proteins and peptides, a tripeptide containing a central cysteine—glutathione—was reacted with PODS as well. Again, the conjugation reaction reached completion before the first measurement could be acquired (<3 min at pH 7.5).
# [3] = Reaction of PODS with model thiol Boc-L-cysteine (with TCEP); conditions: pH 7.5, TCEP
# Procedure: In order to study the reactivity of PODS with thiols, Boc-L-cysteine was used as a model thiol in conjunction with the mild reducing agent tris(2-carboxyethyl)phosphine (TCEP), whose role was the reduction of any latent cystine species in solution (FIG. 2).
# as §1
smiles,measurement,setting,value
"CS(=O)(=O)c1nnc(-c2ccc(NC(=O)CCC(=O)NCCCOCCOCCOCCCN)cc2)o1 [PODS, N^1-(3-(2-(2-(3-Aminopropoxy)ethoxy)ethoxy)propyl)-N′-(4-(5-(methylsulfonyl)-1,3,4 oxadiazol-2-yl)phenyl)succinamide]",time kept without any noticeable signs of degradation,[1],≥ 5 months
same,time to completion of conjugation reaction with glutathione,[2],< 3 min
same,time to quantitative reaction with Boc-L-cysteine,[3],less than 2 minutes

# — US11000604B2, “Reagent for site-selective bioconjugation of proteins or antibodies” (Research Foundation of the City University of New York, priority 2017, dated 2021)
